What all share (assay type): biochemical
One assay addresses T1, PfNDH2 (Plasmodium falciparum, UniProt Q8I302).
T1 construct: gene PF3D7_0915000; recombinant, heterologously expressed; Escherichia coli crude membrane preparation
T1 sequence (Q8I302 34-533): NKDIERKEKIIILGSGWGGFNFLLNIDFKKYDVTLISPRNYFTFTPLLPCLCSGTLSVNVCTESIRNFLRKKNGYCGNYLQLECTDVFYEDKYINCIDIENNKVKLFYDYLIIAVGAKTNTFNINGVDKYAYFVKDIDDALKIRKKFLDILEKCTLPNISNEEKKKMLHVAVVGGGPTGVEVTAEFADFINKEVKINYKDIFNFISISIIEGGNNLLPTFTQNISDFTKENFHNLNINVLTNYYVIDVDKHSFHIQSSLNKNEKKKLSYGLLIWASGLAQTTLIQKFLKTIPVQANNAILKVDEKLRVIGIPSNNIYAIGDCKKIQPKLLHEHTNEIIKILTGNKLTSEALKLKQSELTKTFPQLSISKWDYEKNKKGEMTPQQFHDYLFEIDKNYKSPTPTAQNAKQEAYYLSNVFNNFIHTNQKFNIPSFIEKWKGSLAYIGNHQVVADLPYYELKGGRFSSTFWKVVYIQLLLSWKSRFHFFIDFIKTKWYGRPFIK
Put plainly: spectrophotometric NADH:quinone oxidoreductase assay ([…] and […] nm). The conditions noted are these: read-out: Percentage inhibition / PfNDH2.

The target of assay [1] is T2, complex IV (cytochrome c oxidase) (Plasmodium falciparum, UniProt A0A5K1K9G8).
T2 construct: gene PF3D7_MIT02100; native complex in cell-free extract of saponin-freed parasites; cytochrome c oxidase activity; with Cytochrome c oxidase subunit 3
T2 sequence (A0A5K1K9G8 1-508): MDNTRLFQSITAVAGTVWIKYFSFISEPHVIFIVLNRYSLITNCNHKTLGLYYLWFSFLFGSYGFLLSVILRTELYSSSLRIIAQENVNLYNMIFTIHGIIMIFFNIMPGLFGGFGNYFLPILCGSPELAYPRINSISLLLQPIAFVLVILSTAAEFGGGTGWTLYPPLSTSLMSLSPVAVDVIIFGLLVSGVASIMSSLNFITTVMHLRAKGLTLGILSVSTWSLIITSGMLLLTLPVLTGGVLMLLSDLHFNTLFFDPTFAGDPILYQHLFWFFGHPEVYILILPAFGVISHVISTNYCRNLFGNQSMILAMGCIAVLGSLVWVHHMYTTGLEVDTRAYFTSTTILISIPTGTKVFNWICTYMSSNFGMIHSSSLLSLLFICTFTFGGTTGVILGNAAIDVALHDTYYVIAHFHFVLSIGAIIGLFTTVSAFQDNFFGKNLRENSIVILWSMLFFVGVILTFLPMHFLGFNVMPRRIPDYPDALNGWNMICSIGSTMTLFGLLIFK
T2 sequence (Q7HP05 1-279 partner): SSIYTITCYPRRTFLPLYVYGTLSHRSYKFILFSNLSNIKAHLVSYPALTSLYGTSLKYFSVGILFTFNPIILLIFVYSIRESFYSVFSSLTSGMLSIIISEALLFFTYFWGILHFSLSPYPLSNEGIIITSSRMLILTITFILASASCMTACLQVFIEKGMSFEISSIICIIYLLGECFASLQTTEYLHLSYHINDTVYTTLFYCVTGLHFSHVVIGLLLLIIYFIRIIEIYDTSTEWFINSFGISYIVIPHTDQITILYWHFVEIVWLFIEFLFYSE
Put plainly: spectrophotometric cytochrome c oxidation. The conditions noted are these: read-out: Percentage inhibition / complex IV.

A further assay deals with T3, bc1 (complex III) (Plasmodium falciparum, UniProt Q7HP03+Q8IL75).
T3 construct: gene PF3D7_MIT02300; native complex in cell-free extract of saponin-freed parasites; decylubiquinol:cytochrome c oxidoreductase activity; with Cytochrome c1, heme protein, mitochondrial
T3 sequence (Q7HP03 1-376): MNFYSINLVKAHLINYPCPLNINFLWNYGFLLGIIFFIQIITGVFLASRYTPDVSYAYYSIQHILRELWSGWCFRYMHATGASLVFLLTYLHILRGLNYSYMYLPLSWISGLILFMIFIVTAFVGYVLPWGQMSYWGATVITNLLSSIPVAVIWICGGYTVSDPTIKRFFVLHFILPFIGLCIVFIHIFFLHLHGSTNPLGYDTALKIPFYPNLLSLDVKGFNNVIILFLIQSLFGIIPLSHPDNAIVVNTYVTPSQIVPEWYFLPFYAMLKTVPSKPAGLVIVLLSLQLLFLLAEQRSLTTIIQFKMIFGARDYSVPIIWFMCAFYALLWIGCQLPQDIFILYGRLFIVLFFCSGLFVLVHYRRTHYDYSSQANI
T3 sequence (Q8IL75 31-355): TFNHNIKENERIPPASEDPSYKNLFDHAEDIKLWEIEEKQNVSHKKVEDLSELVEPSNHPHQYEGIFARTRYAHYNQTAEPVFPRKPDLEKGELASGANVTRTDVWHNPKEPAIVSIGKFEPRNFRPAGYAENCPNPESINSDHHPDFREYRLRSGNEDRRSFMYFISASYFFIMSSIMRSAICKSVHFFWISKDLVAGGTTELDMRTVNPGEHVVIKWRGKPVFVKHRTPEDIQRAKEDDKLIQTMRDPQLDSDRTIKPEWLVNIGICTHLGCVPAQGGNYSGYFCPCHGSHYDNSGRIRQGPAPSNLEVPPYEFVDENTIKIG
T3 sequence (Q8I6U9 1-394 partner): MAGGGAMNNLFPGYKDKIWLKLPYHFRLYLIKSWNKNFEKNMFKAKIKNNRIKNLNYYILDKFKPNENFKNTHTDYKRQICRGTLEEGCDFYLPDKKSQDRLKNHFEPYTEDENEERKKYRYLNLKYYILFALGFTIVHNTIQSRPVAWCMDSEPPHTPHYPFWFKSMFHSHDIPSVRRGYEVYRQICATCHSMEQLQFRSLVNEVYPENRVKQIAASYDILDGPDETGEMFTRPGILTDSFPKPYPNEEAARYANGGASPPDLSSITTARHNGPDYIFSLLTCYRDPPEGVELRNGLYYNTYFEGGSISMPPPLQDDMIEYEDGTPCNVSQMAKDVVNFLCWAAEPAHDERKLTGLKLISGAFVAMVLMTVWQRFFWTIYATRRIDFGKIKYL
Put plainly: spectrophotometric cytochrome c reduction ([…]-542 nm). The note with it: read-out: Percentage inhibition / bc1 (complex III).

Data on five molecules can be found in paper PMC3956377, “Rapid kill of malaria parasites by artemisinin and semi-synthetic endoperoxides involves ROS-dependent depolarization of the membrane potential” (Journal of Antimicrobial Chemotherapy, 2013).

Each structure is given as a SMILES string.

On to `C[C@@H]1CC[C@H]2[C@@H](C)C(O)O[C@@H]3O[C@@]4(C)CC[C@@H]1[C@]32OO4` (stereo partly drawn) [Dihydroartemisinin], for which the inhibition at 1 µM on PfNDH2 was 5 ± 4.3%; in assay [1], 21.1 ± 7.9%; on bc1 (complex III), 6.7 ± 4.1%.

For `C[C@@H]1CC[C@H]2[C@@H](C)C(=O)O[C@@H]3O[C@@]4(C)CC[C@@H]1[C@]32OO4` [Artemisinin], the results for the inhibition at 1 µM (on PfNDH2; in assay [1]; on bc1 (complex III)) were 17.1 ± 4.2%, 18.4 ± 4.3% and 3.2 ± 3.7%, respectively.

As for `C[C@H]1[C@H](OC(=O)CCC(=O)O)O[C@@H]2O[C@@]3(C)CC[C@H]4[C@H](C)CC[C@@H]1[C@@]24OO3` [Artesunate], the inhibition at 1 µM at PfNDH2 was found to be 3.7 ± 2.9%; in assay [1], 21.1 ± 3.9%; at bc1 (complex III) it was 2.3 ± 0.4%.

As to `CO[C@H]1O[C@@H]2O[C@@]3(C)CC[C@H]4[C@H](C)CC[C@@H]([C@H]1C)[C@@]24OO3` [Artemether], the results for the inhibition at 1 µM (at PfNDH2; in assay [1]; on bc1 (complex III)) were 4.1 ± 3.3%, 23 ± 2% and 1.8 ± 1.9%, respectively.

As to `CN1CCN(C2CCN(C(=O)CC3CCC4(CC3)OOC3(OO4)C4CC5CC(C4)CC3C5)CC2)CC1` (stereo not drawn), the inhibition at 1 µM at PfNDH2 was determined as 12.3 ± 4.9%; in assay [1], 19.1 ± 2%; at bc1 (complex III), 23.2 ± 4.2%.
